Assays:
[1] = test system: lung tissue gene expression; experiment: Lung mRNA expression by quantitative RT-PCR, OVA model; type: in vivo, BALB/c mice
Procedure: All experiments used female BALB/c mice, 6- to 8-weeks-old. Mice were kept in individually ventilated cages and all experiments were conducted under UK Home Office guidelines. Mice were sensitized (day 0) and boosted (day 14) i.p. with 20 μg OVA (Grade V, Sigma) adsorbed to 9% potassium alum. Mice were either challenged on day 28 and 30 with 50 μg OVA or PBS by the intratracheal route or were challenged with 1% OVA or PBS by aerosol for 30 min on day 28 to day 30. […] Necropsies were performed 24 hr after the final airway challenge. One part of the left lobe of the lung, removed following BALF, was stored in RNAlater (Ambion) at 4°C for up to 4 weeks. Lung samples were homogenized in RLT lysis buffer using TissueLyser (QIAGEN) and total RNA extracted using RNeasy mini spin columns (QIAGEN). RNA (1 μg) was used for synthesis of cDNA using Moloney murine leukemia virus reverse transcriptase. Relative quantification of genes was carried out by RT-PCR using the Roche Lightcycler, as previously described ([Nair et al., 2005]). PCR amplication was analyzed using 2nd derivative Maximum alogarithm (LightCycler 480 SW 1.5, Roche) and the expression of the gene of interest was normalized to the housekeeping gene, GAPDH. Primer sequences used were as follows: GAPDH-For [NT], Rev [NT]1-For [NT], Rev [NT] Collagen I-For [NT], Rev [NT]-1α-For [NT], Rev […]-12-For [NT], Rev [NT]; and TIMP-1-For [NT], Rev [NT]

human AMCase (hAMCase) = molecular target: T1, human AMCase (hAMCase) (Homo sapiens, UniProt Q9BZP6); experiment: Chitinase activity assay with fluorescent 4-MU substrate, hAMCase; type: biochemical
T1 construct: A fragment corresponding to hAMCase 22-398 (bp 64–1194) was ligated into the pPIC9 vector; made in house; host or cells: Pichia pastoris GS115
Procedure: A fragment corresponding to hAMCase 22-398 (bp 64–1194) was ligated into the pPIC9 vector (Invitrogen) using the Xho I and Not I restriction sites. The enzyme was subsequently overexpressed as a secreted protein from the Pichia pastoris GS115 strain and purified using a combination of affinity chromatography and size-exclusion chromatography. Pure hAMCase was spin concentrated to 37 mg/ml in 25 mM HEPES (pH 6.8), 250 mM NaCl. The protein was crystallized at 30°C from 75% saturated NaCl, 0.1 M HEPES (pH 7.4) using the hanging drop method. Crystals grew to an approximate size of 200 × 100 × 50 μm. Crystals were cryoprotected in 50% saturated NaCl, 20% glycerol in 0.1 M HEPES (pH 7.4) and subsequently flash frozen in liquid nitrogen. […] Data for hAMCase were collected at ID14-EH1 at the European Synchrotron Radiation Facilities (ESRF) using a cryostream of cold nitrogen (110 K). […]
Chitinase activity of hAMCase, lung homogenates, or AMCase COS-7 cell supernatants (serum-free) were determined using 4-methylumbelliferyl-β-D-N,N′,N″-triacetylchitotrioside and 4-methylumbelliferyl-β-D-N,N′,N″-triacetylchitobioside, as described. […] Liberated 4-methlyumberlliferone was quantified using a microplate fluorometer (excitation 360 nm/emission 440 nm). Ki and IC50 values were determined in the presence of different concentrations of inhibitor. […]

[2] = 1 and 5 mg/kg i.p., allergic animals

T1 sequence (Q9BZP6 22-398): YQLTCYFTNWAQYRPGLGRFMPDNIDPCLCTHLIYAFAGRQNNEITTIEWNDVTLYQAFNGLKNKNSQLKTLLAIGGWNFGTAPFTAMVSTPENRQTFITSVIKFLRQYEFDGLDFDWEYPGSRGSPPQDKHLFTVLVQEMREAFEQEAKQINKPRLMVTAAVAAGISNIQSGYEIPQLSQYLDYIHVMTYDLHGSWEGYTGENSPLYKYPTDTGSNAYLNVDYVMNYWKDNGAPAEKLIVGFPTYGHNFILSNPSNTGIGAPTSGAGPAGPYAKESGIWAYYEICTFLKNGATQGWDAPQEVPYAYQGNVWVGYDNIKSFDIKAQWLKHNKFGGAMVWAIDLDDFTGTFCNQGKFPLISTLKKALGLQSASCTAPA

SMILES: Cn1cnc2c1c(=O)n(CCCn1c(=O)c3[nH]cnc3n(C)c1=O)c(=O)n2C [bisdionin F]
- MIP-1α mRNA expression in lung ([1]; 5 mg/kg i.p., OVA-challenged animals): enhanced
- MMP-12 mRNA expression in lung [1, 2]: significantly increased
- TIMP-1 mRNA expression in lung [1, 2]: downregulated
- Ym1 mRNA expression in lung [1, 2]: significantly increased
- procollagen I mRNA expression in lung [1, 2]: significantly increased
- enhancement of the ratio of MMP:TIMP expression ([1]; MMP-12:TIMP-1 mRNA, allergic animals): 2.5 fold
- IC50 (human AMCase (hAMCase); 4-MU substrate, pH 5.2, 10 min 37°C, read-out: IC50 against hAMCase): 920 ± 40 nM
- selectivity for AMCase over CHIT1 (human AMCase (hAMCase); hAMCase vs hCHIT1): 20 fold

Reference: article PMC3115046, “Analyzing Airway Inflammation with Chemical Biology: Dissection of Acidic Mammalian Chitinase Function with a Selective Drug-like Inhibitor” (Chemistry & Biology, 2011)
